Test results taken from ChEMBL document CHEMBL4420078, “Sos1 inhibitors for cancer treatment” (2016).
Blank lines part the entries; values can stand above or below the molecule they belong to. Active and inactive are the calls of the source. No cut-off for these calls is given here.

Legend:
[1] = target: T1, Son of sevenless homolog 1 (Mus musculus) (UniProt Q62245); assay: Inhibition of SOS1 in overnight serum-starved mouse NIH/3T3 cells assessed as reduction in Akt phosphorylation at 20 to 40 uM pre-incubated for 16 hrs before EGF stimulation for 5 mins by Western blot analysis
T1 sequence (whole entry): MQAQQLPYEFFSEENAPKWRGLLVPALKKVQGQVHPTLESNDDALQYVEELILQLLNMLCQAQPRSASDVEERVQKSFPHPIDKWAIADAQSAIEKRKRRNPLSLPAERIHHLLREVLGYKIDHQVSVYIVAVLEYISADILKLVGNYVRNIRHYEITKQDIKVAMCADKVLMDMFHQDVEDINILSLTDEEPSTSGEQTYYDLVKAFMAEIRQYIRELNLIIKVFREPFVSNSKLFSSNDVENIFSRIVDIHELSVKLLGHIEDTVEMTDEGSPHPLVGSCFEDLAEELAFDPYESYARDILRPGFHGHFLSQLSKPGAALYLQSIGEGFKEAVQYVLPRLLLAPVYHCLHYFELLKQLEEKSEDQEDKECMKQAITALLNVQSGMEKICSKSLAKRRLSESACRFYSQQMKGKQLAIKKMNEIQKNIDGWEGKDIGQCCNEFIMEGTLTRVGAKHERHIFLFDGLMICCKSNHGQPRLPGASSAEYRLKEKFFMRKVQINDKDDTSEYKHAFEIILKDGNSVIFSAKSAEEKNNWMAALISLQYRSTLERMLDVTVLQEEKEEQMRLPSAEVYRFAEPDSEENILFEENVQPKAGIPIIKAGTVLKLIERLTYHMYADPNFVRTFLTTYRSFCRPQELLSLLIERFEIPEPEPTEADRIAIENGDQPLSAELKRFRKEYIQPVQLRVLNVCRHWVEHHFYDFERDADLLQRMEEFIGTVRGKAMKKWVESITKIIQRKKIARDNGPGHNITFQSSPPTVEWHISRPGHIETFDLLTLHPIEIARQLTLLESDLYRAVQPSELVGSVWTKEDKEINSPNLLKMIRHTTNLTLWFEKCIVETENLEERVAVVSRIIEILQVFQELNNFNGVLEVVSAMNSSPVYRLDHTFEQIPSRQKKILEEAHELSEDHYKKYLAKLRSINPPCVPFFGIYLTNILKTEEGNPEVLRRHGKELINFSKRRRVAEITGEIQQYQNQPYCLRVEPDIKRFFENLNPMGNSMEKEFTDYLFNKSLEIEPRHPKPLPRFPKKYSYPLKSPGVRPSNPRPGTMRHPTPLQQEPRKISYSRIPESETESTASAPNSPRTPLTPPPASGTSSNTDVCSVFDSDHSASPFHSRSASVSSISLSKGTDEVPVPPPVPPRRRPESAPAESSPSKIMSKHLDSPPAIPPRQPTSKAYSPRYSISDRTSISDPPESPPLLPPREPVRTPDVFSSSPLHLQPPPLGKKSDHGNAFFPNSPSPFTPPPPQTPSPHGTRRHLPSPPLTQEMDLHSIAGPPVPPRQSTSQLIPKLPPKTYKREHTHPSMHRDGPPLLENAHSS

[2] = target: Intersectin-1 (Homo sapiens) (UniProt Q15811); assay: Inhibition of N-terminal 6x-His-tagged recombinant human ITSN1 DH and PH domain (1227 to 1571 residues) expressed in Escherichia coli BL21 (DE3) assessed as reduction in 50 nM […] GDP/GTP nucleotide exchange upon 2 uM N-terminal-GST-tagged Cdc42 (1 to 182 residues) at 10 uM by BODIPY-FL-GDP dissociation assay
Sequence of Intersectin-1 (Homo sapiens) (Q15811 whole entry, the tested form may be a part): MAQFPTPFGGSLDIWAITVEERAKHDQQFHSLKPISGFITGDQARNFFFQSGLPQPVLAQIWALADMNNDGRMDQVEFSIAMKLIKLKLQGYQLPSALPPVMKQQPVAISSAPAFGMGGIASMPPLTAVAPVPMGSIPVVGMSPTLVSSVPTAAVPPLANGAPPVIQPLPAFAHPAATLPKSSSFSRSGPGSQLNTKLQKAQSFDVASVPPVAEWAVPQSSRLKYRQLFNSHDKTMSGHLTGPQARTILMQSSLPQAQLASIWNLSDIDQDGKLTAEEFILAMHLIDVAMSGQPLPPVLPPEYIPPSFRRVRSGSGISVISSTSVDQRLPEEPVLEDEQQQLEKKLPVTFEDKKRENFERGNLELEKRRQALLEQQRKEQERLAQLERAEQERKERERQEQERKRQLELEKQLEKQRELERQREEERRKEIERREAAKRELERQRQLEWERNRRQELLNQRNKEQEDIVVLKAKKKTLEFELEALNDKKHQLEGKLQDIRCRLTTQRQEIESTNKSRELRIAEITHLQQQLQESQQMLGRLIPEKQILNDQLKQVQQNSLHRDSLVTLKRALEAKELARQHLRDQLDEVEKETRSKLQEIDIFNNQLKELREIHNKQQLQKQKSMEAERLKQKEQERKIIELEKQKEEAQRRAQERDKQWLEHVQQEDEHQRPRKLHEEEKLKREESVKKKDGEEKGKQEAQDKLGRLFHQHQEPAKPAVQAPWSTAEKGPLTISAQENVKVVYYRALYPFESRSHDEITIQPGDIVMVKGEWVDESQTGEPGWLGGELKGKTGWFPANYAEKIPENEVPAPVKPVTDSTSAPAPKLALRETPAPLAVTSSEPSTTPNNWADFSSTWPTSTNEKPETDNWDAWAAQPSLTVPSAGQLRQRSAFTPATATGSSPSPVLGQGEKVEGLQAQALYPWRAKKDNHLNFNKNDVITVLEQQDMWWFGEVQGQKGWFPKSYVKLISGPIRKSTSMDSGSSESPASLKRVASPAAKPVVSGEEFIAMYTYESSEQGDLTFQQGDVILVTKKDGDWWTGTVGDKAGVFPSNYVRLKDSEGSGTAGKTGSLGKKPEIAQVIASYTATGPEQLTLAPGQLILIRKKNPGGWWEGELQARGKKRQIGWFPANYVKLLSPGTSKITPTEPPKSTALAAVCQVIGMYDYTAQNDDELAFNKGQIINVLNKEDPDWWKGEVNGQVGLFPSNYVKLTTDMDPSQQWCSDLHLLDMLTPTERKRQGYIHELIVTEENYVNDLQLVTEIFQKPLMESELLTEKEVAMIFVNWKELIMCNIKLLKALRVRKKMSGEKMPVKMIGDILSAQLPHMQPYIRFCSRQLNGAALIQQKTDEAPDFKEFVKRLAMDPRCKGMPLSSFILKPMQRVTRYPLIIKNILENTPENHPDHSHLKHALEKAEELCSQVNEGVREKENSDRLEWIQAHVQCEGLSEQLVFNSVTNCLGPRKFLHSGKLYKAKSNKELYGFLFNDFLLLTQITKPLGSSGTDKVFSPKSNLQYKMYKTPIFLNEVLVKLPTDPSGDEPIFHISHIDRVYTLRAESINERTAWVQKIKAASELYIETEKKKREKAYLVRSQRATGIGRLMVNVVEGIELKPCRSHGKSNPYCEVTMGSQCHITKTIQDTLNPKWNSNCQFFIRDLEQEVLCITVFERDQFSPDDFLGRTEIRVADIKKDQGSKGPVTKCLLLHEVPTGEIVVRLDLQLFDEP

[3] = target: T1, Son of sevenless homolog 1 (Mus musculus); assay: Inhibition of SOS1 in overnight serum-starved mouse NIH/3T3 cells assessed as reduction in ERK1/2 phosphorylation at 20 to 100 uM pre-incubated for 2 hrs before EGF stimulation for 5 mins by Western blot analysis
[4] = target: T1, Son of sevenless homolog 1 (Mus musculus); assay: Inhibition of SOS1 in overnight serum-starved mouse MEF assessed as reduction in cell proliferation at 10 to 40 uM incubated for 3 days by MTS assay; assay type: cell-based
[5] = target: T2, Son of sevenless homolog 1 (Homo sapiens) (UniProt Q07889); assay: Inhibition of SOS1 in overnight serum-starved human MIAPaCa2 cells assessed as effect on Ras signaling by measuring KRAS expression in presence of GTP and Pan-RAS at 20 to 60 uM by Western blotting analysis
T2 sequence (whole entry): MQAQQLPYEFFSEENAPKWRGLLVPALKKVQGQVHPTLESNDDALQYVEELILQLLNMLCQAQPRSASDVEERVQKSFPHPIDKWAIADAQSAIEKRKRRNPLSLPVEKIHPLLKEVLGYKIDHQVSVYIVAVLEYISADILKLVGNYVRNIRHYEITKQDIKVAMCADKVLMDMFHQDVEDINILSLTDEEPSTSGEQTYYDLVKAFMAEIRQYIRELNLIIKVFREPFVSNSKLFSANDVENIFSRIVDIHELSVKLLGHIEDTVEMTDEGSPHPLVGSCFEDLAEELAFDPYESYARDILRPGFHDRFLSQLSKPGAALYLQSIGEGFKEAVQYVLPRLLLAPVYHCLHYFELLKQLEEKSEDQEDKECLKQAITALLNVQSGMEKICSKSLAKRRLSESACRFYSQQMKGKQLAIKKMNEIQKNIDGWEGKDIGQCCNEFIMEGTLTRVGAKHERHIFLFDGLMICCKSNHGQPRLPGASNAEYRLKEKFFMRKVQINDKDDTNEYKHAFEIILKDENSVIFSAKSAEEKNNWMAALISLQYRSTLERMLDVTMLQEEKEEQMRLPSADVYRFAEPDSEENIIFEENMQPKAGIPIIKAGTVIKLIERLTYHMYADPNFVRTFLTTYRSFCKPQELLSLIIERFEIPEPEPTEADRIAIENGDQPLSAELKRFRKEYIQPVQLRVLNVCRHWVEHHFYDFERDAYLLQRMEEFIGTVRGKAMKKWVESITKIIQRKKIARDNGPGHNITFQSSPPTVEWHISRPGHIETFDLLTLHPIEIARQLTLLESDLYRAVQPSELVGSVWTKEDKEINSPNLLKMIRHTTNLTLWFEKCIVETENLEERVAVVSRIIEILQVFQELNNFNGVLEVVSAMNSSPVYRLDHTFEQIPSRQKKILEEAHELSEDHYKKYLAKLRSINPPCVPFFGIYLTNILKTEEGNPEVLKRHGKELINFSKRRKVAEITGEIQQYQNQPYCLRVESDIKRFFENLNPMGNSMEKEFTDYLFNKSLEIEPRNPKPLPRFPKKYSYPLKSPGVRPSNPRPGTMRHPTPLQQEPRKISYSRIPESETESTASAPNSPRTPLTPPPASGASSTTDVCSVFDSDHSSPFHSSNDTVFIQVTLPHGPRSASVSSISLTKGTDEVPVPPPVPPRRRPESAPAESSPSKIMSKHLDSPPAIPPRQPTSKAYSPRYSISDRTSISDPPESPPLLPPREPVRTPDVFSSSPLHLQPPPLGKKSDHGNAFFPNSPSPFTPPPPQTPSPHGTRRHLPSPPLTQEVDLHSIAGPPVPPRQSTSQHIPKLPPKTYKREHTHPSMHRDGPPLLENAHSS

inhibition [1]: Active
inhibition [2]: inactive
Structure (SMILES): O=C(O)c1ccccc1-c1c2ccc3cc(O)ccc3c2oc2c1ccc1cc(=O)ccc12

inhibition [3]: Active
inhibition [4]: Active
Structure (SMILES): O=C1Oc2ccccc2C(=O)/C1=C/N1C(=O)/C(=C/c2ccc([N+](=O)[O-])cc2)SC1=S

inhibition [5]: inactive
Structure (SMILES): O=[N+]([O-])c1ccccc1/C=C/C=C1c2ccccc2-c2ccccc21
